In ChEMBL document CHEMBL1133765, “QSAR model for drug human oral bioavailability” (J Med Chem, 2000):

What was measured:
[1] = octanol/water
clinical = details: human, in vivo, po
physchem [2] = details: octanol/water, pH 6.5
physchem [3] = experiment: physchem
[4] = octanol/water; remark: listed apart in the source
physchem [5] = details: octanol/water

Compound | delta logD [1] | bioavailability (clinical) | logD (physchem [2]) | pKa (physchem [3]) | delta logD [4] | logD (physchem [5]; pH 6.5) | bioavailability (clinical; F) | logD (physchem [5]; pH 6.5, logD)
CC(=O)[C@H]1CC[C@H]2[C@@H]3CCC4=CC(=O)CC[C@]4(C)[C@H]3CC[C@]12C [PROGESTERONE] | 0 | < 20% | – | – | – | – | – | –
CC(C(=O)O)c1ccc(-c2ccccc2)c(F)c1 (stereo not drawn) [FLURBIPROFEN] | – | ≥ 80% | 1.81 | 4.2 | 0.9 | – | – | –
CCC1(C)CC(=O)NC1=O (stereo not drawn) [ETHOSUXIMIDE] | 0 | > 80% | – | – | – | -0.33 | – | –
CC1CCCC(C)N1CCCC(O)(c1ccccc1)c1ccccn1 (stereo not drawn) [PIRMENOL] | – | – | -0.53 | 10.2 | -0.9 | – | ≥ 80% | –
CC(C)NCC(O)COc1ccc(COCCOC(C)C)cc1 (stereo not drawn) [BISOPROLOL] | – | – | -0.83 | 9.2 | -0.89 | – | – | –
Cc1ccc(C)c(OCCCC(C)(C)C(=O)O)c1 [GEMFIBROZIL] | – | – | 1.47 | 4.8 | 0.89 | – | ≥ 80% | –
CN(C)CCC=C1c2ccccc2CCc2ccccc21 [AMITRIPTYLINE] | -0.9 | 49% | – | – | – | 2.14 | – | –
C=CCN1CC[C@]23c4c5ccc(O)c4O[C@H]2C(=O)CC[C@@]3(O)[C@H]1C5 [NALOXONE] | -0.81 | < 20% | – | – | – | 0.64 | – | –
CCCNC(=O)NS(=O)(=O)c1ccc(Cl)cc1 [CHLORPROPAMIDE] | – | – | 0.76 | 5 | 0.89 | – | ≥ 80% | –
O=C1CN=C(c2ccccc2)c2cc([N+](=O)[O-])ccc2N1 [NITRAZEPAM] | 0 | 79% | – | – | – | 2.25 | – | –
O=c1[nH]c2ccccc2n1CCCN1CCC(n2c(=O)[nH]c3cc(Cl)ccc32)CC1 [DOMPERIDONE] | – | – | – | – | – | 2.83 | – | –
CN1C(=O)NC(=O)C(C)(C2=CCCCC2)C1=O (stereo not drawn) [HEXOBARBITAL] | – | ≥ 80% | 1.48 | 8.3 | 0.04 | – | – | –
O=P1(N(CCCl)CCCl)NCCCO1 (stereo not drawn) [CYCLOPHOSPHAMIDE ANHYDROUS] | 0 | > 80% | – | – | – | 0.63 | – | –
COc1cc2nc(N3CCN(C(=O)C4CCCO4)CC3)nc(N)c2cc1OC (stereo not drawn) [TERAZOSIN] | -0.52 | – | – | – | – | – | > 80% | 0.29
C[C@]12C=CC(=O)C=C1CC[C@@H]1[C@@H]2C(=O)C[C@@]2(C)[C@H]1CC[C@]2(O)C(=O)CO [PREDNISONE] | 0 | – | – | – | – | – | > 80% | –
COCCc1ccc(OCC(O)CNC(C)C)cc1 (stereo not drawn) [METOPROLOL] | – | – | – | – | – | – | 49% | -1.32
C[C@]12CC[C@H]3[C@@H](CCC4=CC(=O)CC[C@@]43C)[C@@H]1CC[C@@H]2O [TESTOSTERONE] | 0 | < 20% | – | – | – | – | – | –
Cc1[nH]c(=O)c(C#N)cc1-c1ccncc1 [MILRINONE] | – | – | 0.68 | 5.2 | -0.02 | – | ≥ 80% | –
CC(C)(C)NCC(O)COc1cccc2c1CCC(=O)N2 (stereo not drawn) [CARTEOLOL] | – | – | -1.35 | 9.2 | -0.89 | – | ≥ 80% | –
O=C(O)CCc1nc(-c2ccccc2)c(-c2ccccc2)o1 [OXAPROZIN] | – | – | 3.41 | 5.8 | 0.84 | – | ≥ 80% | –
C[C@]12C=CC(=O)C=C1CC[C@@H]1[C@@H]2[C@@H](O)C[C@@]2(C)[C@H]1CC[C@]2(O)C(=O)CO [PREDNISOLONE] | 0 | – | – | – | – | – | – | –

Compound | delta logD [1] | bioavailability (clinical) | logD (physchem [2]) | pKa (physchem [3]) | delta logD [4] | logD (physchem [5]; pH 6.5) | bioavailability (clinical; F) | logD (physchem [5]; pH 6.5, logD)
CC1=NS(=O)(=O)c2cc(Cl)ccc2N1 [DIAZOXIDE] | – | – | 1.2 | 8.5 | 0.03 | – | ≥ 80% | –
C[C@H]1C[C@H]2[C@@H]3CCC4=CC(=O)C=C[C@]4(C)[C@@]3(F)[C@@H](O)C[C@]2(C)[C@@]1(O)C(=O)CO [BETAMETHASONE] | 0 | – | – | – | – | – | – | 1.94
CCN(CC)C(=O)N[C@H]1C[C@@H]2c3cccc4[nH]cc(c34)C[C@H]2N(C)C1 [TERGURIDE] | – | ≤ 20% | 2.05 | 6.8 | -0.32 | – | – | –
CCC1(c2cccc(O)c2)CCCCN(C)C1 (stereo not drawn) [MEPTAZINOL] | – | ≤ 20% | 0.71 | 8.7 | -0.88 | – | – | –
O=c1[nH]c2ccccc2n1C1CCN(CCCC(c2ccc(F)cc2)c2ccc(F)cc2)CC1 [PIMOZIDE] | – | – | – | 7.3 | – | 5.42 | – | –
O=C(NCCNCC(O)COc1ccc(O)cc1)N1CCOCC1 (stereo not drawn) [XAMOTEROL] | – | – | -0.8 | 7.8 | -0.78 | – | ≤ 20% | –
CN(CCCN1c2ccccc2CCc2ccccc21)CC(=O)c1ccc(Cl)cc1 [LOFEPRAMINE] | – | – | 4.58 | 6.7 | -0.32 | – | ≤ 20% | –
CC(C)N(CCC(C(N)=O)(c1ccccc1)c1ccccn1)C(C)C (stereo not drawn) [DISOPYRAMIDE] | – | ≥ 80% | -1.08 | 10.4 | -0.9 | – | – | –
CCCNC1CCc2nc(N)sc2C1 (stereo not drawn) | – | – | -2.9 | 11 | -0.9 | – | ≥ 80% | –
CCCN(CCC)S(=O)(=O)c1ccc(C(=O)O)cc1 [PROBENECID] | – | – | 0.11 | 3.4 | 0.9 | – | ≥ 80% | –
CN1C(C(=O)Nc2ccccn2)=C(O)c2sccc2S1(=O)=O [TENOXICAM] | – | – | 0.56 | 5.1 | 0.88 | – | ≥ 80% | –
N#Cc1ccccc1OCC(O)CNCCNC(=O)Cc1ccc(O)cc1 (stereo not drawn) [EPANOLOL] | – | – | -0.4 | 7.8 | -0.77 | – | ≤ 20% | –
CC(C)(C)NCC(O)c1cc(Cl)c(N)c(C(F)(F)F)c1 (stereo not drawn) [MABUTEROL] | – | ≥ 80% | -0.03 | 9.7 | -0.9 | – | – | –
O=C1OC(c2ccc(O)cc2)(c2ccc(O)cc2)c2ccccc21 [PHENOLPHTHALEIN] | – | – | 2.41 | – | 0 | – | ≤ 20% | –
Nc1cc(-c2ccncc2)c[nH]c1=O [INAMRINONE] | – | – | -0.72 | 5.2 | -0.02 | – | ≥ 80% | –
Sc1ncnc2nc[nH]c12 [MERCAPTOPURINE ANHYDROUS] | – | – | -1.12 | 7.6 | -0.72 | – | ≤ 20% | –
Cc1ccc(C(=O)c2ccc(CC(=O)O)n2C)cc1 [TOLMETIN] | – | – | -0.21 | – | 0.9 | – | ≥ 80% | –
CN1C(=O)CC(=O)N(c2ccccc2)c2cc(Cl)ccc21 [CLOBAZAM] | – | ≥ 80% | 0.95 | – | 0 | – | – | –
C[C@@H]1C[C@H]2[C@@H]3CCC4=CC(=O)C=C[C@]4(C)[C@@]3(F)[C@@H](O)C[C@]2(C)[C@@]1(O)C(=O)CO [DEXAMETHASONE] | 0 | – | – | – | – | – | – | 1.83
COc1ccc(Cl)cc1C(=O)NCCc1ccc(S(=O)(=O)NC(=O)NC2CCCCC2)cc1 [GLYBURIDE] | – | – | 1.85 | 5.3 | 0.87 | – | ≥ 80% | –
C1COC(NC(C2CC2)C2CC2)=N1 [RILMENIDINE] | – | – | -0.94 | 9.3 | -0.9 | – | ≥ 80% | –
